The nature of data set [1]: Dynamic solubility of crystal form in SGF, FaSSIF, FeSSIF and water (HPLC). It counts as physicochemical. The method, then:
When a drug solubility test was performed to predict the performances of a drug in vivo, it is important to simulate in vivo conditions as much as possible. For oral drugs, simulated gastric fluid (SGF), fasted state simulated intestinal fluid (FaSSIF) and fed state simulated intestinal fluid (FeSSIF) may be used to simulate in vivo conditions and predict a feeding effect, and the solubility tested in such media was closer to the solubility in the human body environment.

For data set [2] the following is noted: cited from earlier work.
Data set [3] is described as follows: Stability of crystal form DCIII on sealed placement (HPLC purity, XRPD crystal form). It counts as physicochemical.
Data set [4] is described as follows: Mechanical stability: manual grinding, XRPD before and after. The conditions noted are these: ground manually in a mortar for 5 min. It is filed as physicochemical.
Data set [5] is described as follows: Hygroscopicity (Chinese Pharmacopoeia 9103, 25±1° C., 80% relative humidity). The note with it: 80% RH, 24 h. It counts as physicochemical. The method, then: According to the description of hygroscopicity characteristics and the definition (9103 Drug Hygroscopicity Experiment Guiding Principles, 2020 edition of General Principles, Chinese Pharmacopoeia, experimental conditions: 25±1° C., 80% relative humidity) of the hygroscopic weight gain: • deliquescent: enough water is absorbed to form liquid • very hygroscopic: the hygroscopic weight gain is not less than 15.0% • hygroscopic: the hygroscopic weight gain is less than 15.0% but not less than 2.0% • slightly hygroscopic: the hygroscopic weight gain is less than 2.0% but not less than 0.2% • no or almost no hygroscopicity: the hygroscopic weight gain is […].

Setting [6] is: 25° C./60% RH, 1 month, sealed, listed as crystal form DCIII.
[7] abbreviates: 40° C./75% RH, 1 month, sealed, listed as crystal form DCIII.
The mark [8] stands for this setting: 60° C./75% RH, 1 month, sealed, listed as crystal form DCIII.

The structures appear in SMILES notation. ≈ marks a conversion by molar mass, not a printed value. Entries after “also recorded” stand apart in the source; their conditions may differ. Like-named read-outs stand apart in the source and are kept apart here.

As for `C=CC(=O)N1CCN(c2nc(=O)n(-c3c(C)ccnc3C(C)C)c3nc(-c4c(O)cccc4F)c(F)cc23)[C@@H](C)C1` [Anhydrous crystal form I, 6-fluoro-7-(2-fluoro-6-hydroxyphenyl)-1-(4-methyl-2-propane-2-ylpyridin-3-yl)-4-[(2S)-2-methyl-4-propyl-2-enoylpiperazin-1-yl]pyridine[2,3-d]pyrimidin-2-one, reference compound], in data set [1] (FaSSIF, equilibrated 1 h), the “Solubility FaSSIF 1 h” value was found to be 0.02 mg/mL (≈ 35.7 µM). The “Solubility FaSSIF 4 h” value in data set [1] (FaSSIF, equilibrated 4 h) was 0.01 mg/mL (≈ 17.8 µM). Further, in data set [1] (FeSSIF, equilibrated 4 h), the “Solubility FeSSIF 4 h” value is given as 0.04 mg/mL (≈ 71.4 µM). In data set [1] (equilibrated 1 h), the “Solubility H2O 1 h” value worked out at 0.01 mg/mL (≈ 17.8 µM). Further, the “Solubility H2O 4 h” value in data set [1] (equilibrated 4 h) is reported as 0.01 mg/mL (≈ 17.8 µM). The “Solubility H2O 24 h” value in data set [1] (equilibrated 24 h) was 0.01 mg/mL (≈ 17.8 µM). Moreover, the solubility at 24 h in data set [1] (fasted state simulated intestinal fluid (FaSSIF), fassif, thermodynamic from solid, FaSSIF, equilibrated 24 h, read-out: Solubility FaSSIF 24 h) was 0.03 mg/mL (≈ 53.5 µM); in data set [1] (fed state simulated intestinal fluid (FeSSIF), fessif, thermodynamic from solid, FeSSIF, equilibrated 24 h, read-out: Solubility FeSSIF 24 h), 0.06 mg/mL (≈ 107 µM); in data set [1] (simulated gastric fluid (SGF), simulated gastric fluid, thermodynamic from solid, SGF, equilibrated 24 h, read-out: Solubility SGF 24 h), 3.11 mg/mL (≈ 5550 µM). Besides, in data set [1] (simulated gastric fluid (SGF), simulated gastric fluid, thermodynamic from solid, SGF, equilibrated 1 h), the solubility at 1 h was 3.77 mg/mL (≈ 6720 µM). This molecule also came in with a solubility at 4 h in data set [1] (simulated gastric fluid (SGF), simulated gastric fluid, thermodynamic from solid, SGF, equilibrated 4 h) of 3.86 mg/mL (≈ 6890 µM). Besides, the “Solubility (prior-art form, in words)” value in data set [2] is on record as “low solubility”.
As to `C=CC(=O)N1CCN(c2nc(=O)n(-c3c(C)ccnc3C(C)C)c3nc(-c4c(O)cccc4F)c(F)cc23)[C@@H](C)C1` [Crystal form DCIII, 6-fluoro-7-(2-fluoro-6-hydroxyphenyl)-1-(4-methyl-2-propane-2-ylpyridin-3-yl)-4-[(2S)-2-methyl-4-propyl-2-enoylpiperazin-1-yl]pyridine[2,3-d]pyrimidin-2-one], in data set [1] (FaSSIF, equilibrated 1 h), the “Solubility FaSSIF 1 h” value is 0.05 mg/mL (≈ 89.2 µM). Further, the “Solubility FaSSIF 4 h” value in data set [1] (FaSSIF, equilibrated 4 h) stood at 0.04 mg/mL (≈ 71.4 µM). Further, the “Solubility FaSSIF 24 h” value in data set [1] (FaSSIF, equilibrated 24 h) turned out to be 0.04 mg/mL (≈ 71.4 µM). For the same molecule, the “Solubility FeSSIF 1 h” value in data set [1] (FeSSIF, equilibrated 1 h) is 0.15 mg/mL (≈ 268 µM). Moreover, in data set [1] (FeSSIF, equilibrated 4 h), the “Solubility FeSSIF 4 h” value was determined as 0.2 mg/mL (≈ 357 µM). The “Solubility FeSSIF 24 h” value in data set [1] (FeSSIF, equilibrated 24 h) is listed as 0.08 mg/mL (≈ 143 µM). Moreover, the “Solubility H2O 1 h” value in data set [1] (equilibrated 1 h) is 0.03 mg/mL (≈ 53.5 µM). For the same molecule, the “Solubility H2O 4 h” value in data set [1] (equilibrated 4 h) was determined as 0.03 mg/mL (≈ 53.5 µM). The “Solubility H2O 24 h” value in data set [1] (equilibrated 24 h) worked out at 0.03 mg/mL (≈ 53.5 µM). In addition, the “Solubility compared with anhydrous crystal form I (in words)” value in data set [1] (SGF, FaSSIF, FeSSIF and pure water) is recorded as “higher solubility”. The “Solubility SGF 1 h” value in data set [1] (SGF, equilibrated 1 h) came out at 7.27 mg/mL (≈ 13000 µM). In data set [1] (SGF, equilibrated 4 h), the “Solubility SGF 4 h” value came out at 6.24 mg/mL (≈ 11100 µM). Moreover, the “Solubility SGF 24 h” value in data set [1] (SGF, equilibrated 24 h) came to 4.54 mg/mL (≈ 8100 µM). The “Crystal form (XRPD)” value in data set [3] (25° C./60% RH, 1 month, sealed) is listed as “Crystal form DCIII”; in data set [3] (setting [6]), “remains unchanged”; in data set [3] (40° C./75% RH, 1 month, sealed), “Crystal form DCIII”; in data set [3] (setting [7]), “remains unchanged”; in data set [3] (60° C./75% RH, 1 month, sealed) it was “Crystal form DCIII”; in data set [3] (setting [8]), “remains unchanged”. Further, in data set [3] (Onset), the “Crystal form (XRPD)” value is recorded as “Crystal form DCIII”. The “Purity (HPLC)” value is listed as 99.45% in data set [3] (25° C./60% RH, 1 month, sealed); “above 99%” in data set [3] (setting [6]); 99.49% in data set [3] (40° C./75% RH, 1 month, sealed); “does not present a significant decrease” in data set [3] (setting [7]); 99.50% in data set [3] (60° C./75% RH, 1 month, sealed); “does not present a significant decrease” in data set [3] (setting [8]). Besides, the “Purity (HPLC)” value in data set [3] (Onset) was determined as 99.44%. Also, in data set [3] (25° C./60% RH, 40° C./75% RH and 60° C./75% RH), the “Time for which physicochemical stability is maintained” value is on record as “at least 1 month”. In addition, the “Crystal form before and after grinding (XRPD)” value in data set [4] was “remained unchanged; also recorded: no crystal transformation”. Also, the Crystallinity after grinding entry in data set [4] is given as “no significant decrease”. In data set [5], this molecule returned a Weight gain percentage of 0.6%. The same molecule displayed a Weight gain mass in data set [5] (onset mass 102.76 mg) of 0.64 mg.

These data come from patent publication US20240409537A1, “Crystal Form of AMG510 Compound, and Preparation Method Thereof and Use Thereof” (BIRDO (SHANGHAI) PHARMACEUTICAL R&D CO., LTD, priority 2021, published 2024).
